Data reported in patent US20070099877A1, “N-aryl-thienopyrimidin-4-amines and analogs as activators of caspases and inducers of apoptosis and the use thereof” (Cytovia, Inc., priority 2005, published 2007).
Where a name gives a salt, the structure may show the parent alone. Read-outs that look alike come from different tables or passages of the source.

What was measured:
Assay type in all cases: cell-based
[1] = system: human hepatocellular carcinoma cell line SNU398; assay: Caspase cascade activation in SNU398 cells; conditions: Homo sapiens, SNU-398, 48 h, read-out: Caspase activation Potency EC50 SNU398 (48 h)
Method in brief: (§1)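 Cells were exposed to compound at 0.016 to 10 μM final for 24 h or 48 h at 37 °C. They were then lysed with 14 μM N-(Ac-DEVD)-N′-ethoxycarbonyl-R110 in lysolecithin/DTT/PIPES buffer pH 7.2 for 3 h at room temperature (ex 485/em 530 nm). EC50 came from a sigmoidal fit of net RFU relative to untreated control.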

[2] = system: human colon carcinoma cell line HCT116; assay: Caspase cascade activation in HCT116 cells; conditions: Homo sapiens, HCT-116, 48 h, read-out: Caspase activation Potency EC50 HCT116 (48 h)
Method in brief: as §1

[3] = system: human breast cancer cell line MX-1; assay: Inhibition of cell proliferation (GI50) in MX-1 cells; conditions: MX1 cells
Protocol: (§2) Human breast cancer cell lines T-47D, MX-1 and MDAMB435, human colon cancer cell line HT29, and human lung cancer cell line H1299 were grown and harvested as in Example 75. An aliquot of […] of cells (4.4×10^4 cells/mL) was added to a well of a 96-well microtiter plate containing 5 μL of a 10% DMSO in RPMI-1640 media solution containing 10 nM to 100 μM of N-(2,5-dimethoxyphenyl)-2-methylthieno[3,2-d]pyrimidin-4-amine (1 nM to 10 μM final). An aliquot of 45 μL of cells was added to a well of a 96-well microtiter plate containing 5 μL of a 10% DMSO in RPMI-1640 media solution without compound as the control sample for maximal cell proliferation (Lmax). The samples were mixed by agitation and then incubated at 37° C. for 48 h in a 5% CO2-95% humidity incubator. After incubation, the samples were removed from the incubator and 25 μL of CellTiter-Glo™ reagent (Promega) was added. The samples were mixed by agitation and incubated at room temperature for 10-15 min. Plates were then read using a luminescent plate reader (Model SPECTRAfluor Plus, Tecan) to give Ltest values.
(§3) Baseline for GI50 (dose for 50% inhibition of cell proliferation) of initial cell numbers was determined by adding an aliquot of 45 μL of cells or 45 μL of media, respectively, to wells of a 96-well microtiter plate containing 5 μL of a 10% DMSO in RPMI-1640 media solution. The samples were mixed by agitation and then incubated at 37° C. for 0.5 h in a 5% CO2-95% humidity incubator. After incubation, the samples were removed from the incubator and 25 μL of CellTiter-Glo™ reagent (Promega) was added. The samples were mixed by agitation and incubated at 37° C. for 10-15 min at room temperature in a 5% CO2-95% humidity incubator. Fluorescence was read as above, (LStart) defining luminescence for initial cell number used as baseline in GI50 determinations.
(§4) GI50 (dose for 50% inhibition of cell proliferation) is the concentration where [(LTest−Lstart)/(LMax−Lstart)]=0.5.

[4] = system: human hepatocellular carcinoma cell line SNU398; assay: Inhibition of cell proliferation (GI50) in SNU398 cells; conditions: SNU-398, Table IV, read-out: GI50 in Multi-Cancer Cells SNU398
Protocol: as §2, §3, §4
(§5) Several compounds were tested in multi cancer cell lines, including human breast cancer cell lines T-47D, MX-1, SKBR3 and MDAMB435, human hepatocellular carcinoma cell line SNU398, human colon carcinoma cell line HCT116, human sarcoma cell line MES-SA and multi-drug resistant (MDR) human sarcoma cell line MES-SA/ADR, murine leukemia cell line P388 and multi-drug resistant (MDR) murine leukemia cell line P388ADR, and the data are summarized in Table IV.

[5] = system: human colon carcinoma cell line HCT116; assay: Inhibition of cell proliferation (GI50) in HCT116 cells; conditions: HCT-116, Table IV, read-out: GI50 in Multi-Cancer Cells HCT116
Protocol: as §2, §3, §4, §5

[6] = system: human breast cancer cell line SKBR3; assay: Inhibition of cell proliferation (GI50) in SKBR3 cells; conditions: SK-BR-3, Table IV, read-out: GI50 in Multi-Cancer Cells SKBR3
Protocol: as §2, §3, §4, §5

[7] = system: multi-drug resistant (MDR) human sarcoma cell line MES-SA/ADR; assay: Inhibition of cell proliferation (GI50) in MES-SA/ADR cells; conditions: Table IV, read-out: GI50 in Multi-Cancer Cells MES-SA/ADR
Protocol: as §2, §3, §4, §5

[8] = system: murine leukemia cell line P388; assay: Inhibition of cell proliferation (GI50) in P388 cells; conditions: Mus musculus, Table IV, read-out: GI50 in Multi-Cancer Cells P388
Protocol: as §2, §3, §4, §5

[9] = Table IV, read-out: GI50 in Multi-Cancer Cells MX1

Row | EC50 [1] | EC50 [2] | GI50 ([3]; Table III, 48 h, read-out: GI50 in Cancer Cells MX1) | GI50 [3, 9] | GI50 [4] | GI50 [5] | GI50 [6] | GI50 [7] | GI50 [8] | Compound
1 | 1610 nM | 5000 nM | 300 nM | 800 nM | 2100 nM | 4980 nM | 500 nM | 7260 nM | 2060 nM | COc1ccc(OC)c(Nc2ncnc3ccsc23)c1 [Example 2, N-(2,5-Dimethoxyphenyl)thieno[3,2-d]pyrimidin-4-amine]
2 | 249 nM | 279 nM | – | 17 nM | 706 nM | 1250 nM | 60 nM | 1200 nM | 540 nM | COc1cc(Nc2ncnc3ccsc23)cc(OC)c1 [Example 12, N-(3,5-Dimethoxyphenyl)thieno[3,2-d]pyrimidin-4-amine hydrochloride]
